Broadly, the solubility is how much of the substance goes into solution per volume. A low value points to little dissolved substance.

A short description of data set [1]: Physicochemical characteristics of drug substance, powder composition, blend and lyophilized product. From the text: Another indication of the physicochemical characteristics of the powder composition is the density properties such as bulk and tapped density. Bulk density is described as untapped or tapped. Untapped bulk density of a substance is the undisturbed packing density of that substance and tapped bulk density relates to the packing density after tapping a bed of substance until no change in the packing density is seen. Bulk density and tapped density can be determined using compendial bulk density apparatus, the method being given in United States Pharmacopeia 29, United States Pharmacopeial Convention, Inc., Rockville, Md., 2005, at pages 2638-2639. A higher bulk density indicates a dense material allowing a higher dose to be filled into a given size capsule for example. The powder compositions can have bulk densities from about 0.8 g/ml to about 0.2 g/ml, or from about 0.6 g/ml to about 0.2 g/ml.
The Hausner ratio is a measure of inter-particle friction and the potential powder arch or bridge strength and stability (Hausner, H. H. Friction conditions in a mass of metal powders. International Journal of Powder Metallurgy 1967, 3 (4), pages 7-13). It has been widely used to estimate the flow properties of powders, blends, granules and other such particles or aggregates and is expressed as the ratio of tapped bulk density to the untapped bulk density of the substance. Hausner ratio used herein is defined as ratio of tapped to untapped bulk densities. A Hausner ratio of <1.2 indicates good flow while ratio >1.5 indicate poor flow. The powder compositions can have a Hausner ratio less than 1.5 or less than 1.2.
Carr index as used herein is defined as the percent compressibility which is a percentage ratio of the difference between tapped bulk density and initial bulk density to tapped bulk density. Carr index values between 5-15% represent materials with excellent flowability, values between 18-21% represent fair-flowability and values above 40% represent very poor flowability. The powder compositions of the invention can have Carr index values less than 40% or less than 21% or less than 15%.
Table 1 describes the physicochemical characteristics of DRF-(5S,20S)-1042, which is used in the examples below.
The powder composition and formulation blend along with their placebo have been characterized for their physical parameters and the data has been tabulated in table 11.
After completion of lyophilization cycle the vials were sealed using 20 mm aluminum flip-off seals. The resulting lyophilized product was tested for various parameters as per Table 19.

A short description of a further data set: physchem. The data set is classed as physicochemical. The conditions noted are these: thermodynamic from solid. How it is done:
Excess amounts of DRF-(5S,20S)-1042 were added to different media including water, fasting state simulated intestinal fluid (FaSIF), fed state simulated intestinal fluid (FeSIF), aqueous sodium carbonate solution (0.1M, pH12.6), aqueous sodium hydroxide solution (0.1M, pH 12.73) and the suspensions were shaken at room temperature for 24 hours at 200 rpm in a mechanical shaker water bath till no further drug went into solution when checked visually. The suspensions were filtered through a 0.22 μm membrane filter (supplied by Millipore) and the content of DRF-(5S,20S)-1042 was quantified by using the HPLC method described above.

The nature of data set [2]: Storage stability of powder composition and capsules (HPLC impurities, assay). The data set is classed as physicochemical. Particulars: Table 13; E* (S-isomer). On the procedure:
Samples are analyzed by HPLC using a Chiralcel OD-H 250×4.6 mm column with a 5 μm particle size, at a wavelength of 257 nm using a variable wavelength UV detector, and a mobile phase comprising buffer (0.01 M KH2PO4; pH 3.0±0.1): acetonitrile (68:32% v/v), flow rate 1 ml/minute.
For the determination of the R-isomer impurity in the compositions, conditions essentially similar to the ones described above are used. The mobile phase comprises buffer (pH 3.0±0.1): acetonitrile (76:24% v/v).
For impurities other than the R-isomer the HPLC analysis comprises a Waters HPLC system equipped with a variable wavelength UV detector using symmetry C18, 250 column with a 5 μm particle size, at a wavelength of 257 nm, column temperature of 40° C. The mobile phase comprises
The capsules of Example 9B were charged for stability for about 3 months at different temperature conditions such as 2-8° C., 25° C. and the samples were analyzed by an HPLC procedure described above.
The powder composition of Example 13 was filled in amber coloured glass vials and sealed. Both initial sample and samples exposed at 25° C./60% RH (relative humidity), 30° C./65% RH, 40° C./75% RH for period of 3 days were analyzed for impurities by using HPLC as per the process described above.
The capsules have been exposed at 25° C./60% RH, 30° C./65% RH and 40° C./75% RH for a period of 3 months and data has been tabulated in Table 13.
The capsules packed in HDPE containers were exposed to different stability conditions such as 40° C./75% RH, 30° C./65% RH, 25° C./60% RH, 2-8° C. for about 6-12 months.

Data set [3] relates to Human bone marrow mononuclear cells. Description: Human bone marrow assay (CFU-GM colonies). The data set is classed as cell-based. Particulars: GI90 for human cell toxicity to GI50 for anticancer activity. How it is done:
Methocult.TM. GF (Cat No: H4534, Poietics, Biowhittakar, USA) medium comprising Methycellulose in iscove's MDM, Fetal bovine serum, Bovine serum albumin, 2-Mercaptoethanol, L-Glutamine, rhStem cell factor, rhGM-CSF and rhIL-3 was used for the assay. Human bone marrow mononuclear cells (Cat No. 2M-125C, Poietics, Biowhittakar, USA) were mixed with Methocult GF and the cell density was adjusted to 3×10^5 cells/ml. From this preparation, 500 μL aliquots were made and […] of 20× drug solution or vehicle was added to each aliquot and mixed thoroughly. 100 μL of clonogenic medium was plated into each well and the plates were allowed to gel at 4° C. for 15 minutes. Plates were incubated at 37 degree C. in a fully humidified atmosphere of 5% CO2 in an incubator for 14 days. CFU-GM colonies were counted under an inverted microscope as aggregates of 50 cells or more. The percentage colony inhibition was calculated using the following formula: 100−[(number of colonies in drug treated wells/Number of colonies in control wells)×100].

≈ marks a conversion by molar mass, not a printed value.

Turning to `CC[C@@]1(O)C(=O)OCc2c1cc1n(c2=O)[C@@H](OCCO)c2cc3ccccc3nc2-1` [DRF-(5S,20S)-1042, 5(S)-(2′-hydroxyethoxy)-20(S)-camptothecin], in data set [1] (drug substance), the Bulk density amounted to 0.17 g/mL, the “Carr Index” value is 46.5%, the Hausner ratio was 1.9 and the Moisture content was found to be 0.2 % w/w. Further, the Tapped density in data set [1] (drug substance) amounted to 0.31 g/mL. Besides, in data set [1] (lot used for the examples), the “Particle size D10” value is listed as “D10 = 3.6 μm”, the “Particle size D50” value is reported as “D50 = 10.9 μm” and the “Particle size D90” value was “D90 = 34.0 μm”. This compound returned a solubility at 24 h in the data set “physchem” (fessif) of approximately 41 µg/mL (≈ 0.1 mM). The same compound came in with a solubility at 24 h in “physchem” (pH 12.6, aqueous buffer) of 4160 µg/mL (≈ 10.2 mM). In the data set “physchem” (pH 12.73, aqueous buffer), this compound yielded a solubility at 24 h of 6670 µg/mL (≈ 16.3 mM). In addition, in data set [2], the “A = DRF (5R,20S)-1042” value is recorded as 1.11 % Peak Area, the “B = Decarboxylated impurity” value is on record as 0.02 % Peak Area, the “C = Dimer impurity” value was determined as 0.35 % Peak Area and the “D = Total impurities excluding DRF (5R,20S)-1042” value is given as 0.96 % Peak Area. For the same compound, the “Safety Margin GI90/GI50” value in data set [3] is recorded as 0.14.

These data come from patent US20110177161A1, “PHARMACEUTICAL COMPOSITIONS OF [5(S)-(2'-HYDROXYETHOXY)-20(S)-CAMPTOTHECIN” (DR. REDDY'S LABORATORIES LIMITED, priority 2007, published 2011).
